Experimental data published in ChEMBL document CHEMBL5244222, “A comprehensive review on xanthone derivatives as α-glucosidase inhibitors” (Eur J Med Chem, 2018).
In brackets after ≈: the same amount, converted by molar mass. Values belong to the molecule of their own block, whether it stands above or below them.

Legend:
Alpha glucosidase [1] = target: T1, Alpha glucosidase (Homo sapiens, UniProt O43451+P10253+P14410+Q2M2H8); assay: Inhibition of alpha-glucosidase (unknown origin) at 40 uM; type: protein assay
[2] = Inhibition of rice alpha-glucosidase using p-nitrophenyl-alpha-D-glucopyranoside as substrate preincubated for 15 mins followed by substrate addition and measured after 90 mins by spectroscopic analysis
[3] = Inhibition of rat intestine alpha-glucosidase using p-nitrophenyl-alpha-D-glucopyranoside as substrate preincubated for 10 mins followed by substrate addition and measured after 5 mins by spectroscopic analysis; type: tissue-based
Rattus norvegicus [4] = species on record: Rattus norvegicus; assay: Inhibition of rat intestine alpha-glucosidase using MUG as substrate at 65 uM preincubated for 15 mins followed by substrate addition and measured after 30 mins by fluorescence microplate reader analysis; type: tissue-based; details: time 45.0 min
Alpha glucosidase [5] = target: T1, Alpha glucosidase; assay: Inhibition of alpha-glucosidase (unknown origin) using PNPG as substrate incubated for 30 mins by absorbance assay; type: protein assay
Alpha-glucosidase [6] = target: T2, Alpha-glucosidase (Saccharomyces cerevisiae S288c, UniProt P53341+P38158+P07265); assay: Inhibition of Saccharomyces cerevisiae alpha-glucosidase assessed as release of p-nitrophenol using pNPG as substrate preincubated for 15 mins followed by substrate addition and measured after 30 mins by spectrophotometric analysis; type: protein assay
Alpha glucosidase [7] = target: T1, Alpha glucosidase; assay: Inhibition of alpha-glucosidase (unknown origin) at 100 uM; type: protein assay
Alpha-glucosidase [8] = target: T2, Alpha-glucosidase; assay: Inhibition of Saccharomyces cerevisiae alpha-glucosidase using pNPG as preincubated for 10 mins followed by substrate addition and measured after 30 mins by spectroscopic analysis; type: protein assay
Alpha-glucosidase [9] = target: T2, Alpha-glucosidase; assay: Inhibition of Saccharomyces cerevisiae alpha-glucosidase using pNPG as preincubated for 15 mins followed by substrate addition and measured after 30 mins by spectroscopic analysis
Alpha-glucosidase [10] = target: T2, Alpha-glucosidase; assay: Inhibition of baker's yeast alpha-glucosidase using PNP as substrate preincubated for 30 mins followed by […] addition and measured after 1 mins by UV spectrophotometric analysis; type: protein assay
Alpha-glucosidase [11] = target: T2, Alpha-glucosidase; assay: Inhibition of Saccharomyces cerevisiae alpha-glucosidase assessed as release of p-nitrophenol using pNPG as substrate preincubated for 15 mins followed by substrate addition and measured after 15 mins by plate reader analysis; type: protein assay
Alpha-glucosidase [12] = target: T2, Alpha-glucosidase; assay: Inhibition of Saccharomyces cerevisiae alpha-glucosidase assessed as release of p-nitrophenol using pNPG as substrate preincubated for 5 mins followed by substrate addition and measured after 30 mins by absorbance assay; type: protein assay
Alpha-glucosidase [13] = target: T2, Alpha-glucosidase; assay: Inhibition of Saccharomyces cerevisiae alpha-glucosidase using PNPG as substrate preincubated for 15 mins followed by substrate addition and measured after 30 mins by spectrophotometric assay; type: protein assay
Alpha-glucosidase [14] = target: T2, Alpha-glucosidase; assay: Inhibition of Saccharomyces cerevisiae alpha-glucosidase assessed as release of p-nitrophenol using pNPG as substrate preincubated for 15 mins followed by substrate addition and measured after 15 mins by spectrophotometric analysis; type: protein assay
[15] = Inhibition of rat jejunum isomaltase; type: tissue-based
[16] = Inhibition of rat jejunum sucrase; type: tissue-based
Rattus norvegicus [17] = species on record: Rattus norvegicus; assay: Inhibition of rat jejunum maltase at 300 ug/ml; type: tissue-based; details: dose 300.0 µg/ml
Rattus norvegicus [18] = species on record: Rattus norvegicus; assay: Inhibition of rat intestine alpha-glucosidase using MUG as substrate at 100 uM preincubated for 15 mins followed by substrate addition and measured after 30 mins by fluorescence microplate reader analysis; type: tissue-based; details: time 45.0 min
Alpha-glucosidase [19] = target: T2, Alpha-glucosidase; assay: Inhibition of Saccharomyces cerevisiae alpha-glucosidase using PNPG as substrate incubated for 30 mins by spectrophotometric assay; type: protein assay
Alpha-glucosidase [20] = target: T2, Alpha-glucosidase; assay: Inhibition of Saccharomyces cerevisiae alpha-glucosidase using maltose as substrate incubated for 30 mins by spectrophotometric assay; type: protein assay
Alpha-glucosidase [21] = target: T2, Alpha-glucosidase; assay: Inhibition of yeast alpha-glucosidase using p-nitrophenyl-alpha-D-glucopyranoside as substrate incubated for 30 mins by spectrophotometric assay; type: protein assay
Alpha-glucosidase [22] = target: T2, Alpha-glucosidase; assay: Mixed-type inhibition of Saccharomyces cerevisiae alpha-glucosidase using PNPG as substrate incubated for 30 mins by Lineweaver-Burk double-reciprocal plot analysis; type: protein assay
[23] = target: Alpha-glucosidase (Saccharomyces cerevisiae S288c) (UniProt P53341+P38158+P07265); assay: Inhibition of Saccharomyces cerevisiae alpha-glucosidase using p-NP-alpha-G as substrate at 100 uM by spectroscopic analysis; type: protein assay
Prunus dulcis = assay: Inhibition of almond beta-glucosidase using p-NP-beta-G as substrate at 100 uM by spectroscopic analysis
Alpha glucosidase [24] = target: T1, Alpha glucosidase; assay: Inhibition of alpha-glucosidase (unknown origin) using PNPG as substrate preincubated for 15 mins followed by substrate addition by microplate reader assay; type: protein assay

Structure (SMILES): C[C@H]1O[C@H](O[C@H]2[C@H](O)[C@@H](O)[C@@H](O[C@H]3[C@H](O)[C@@H](O)C(O)O[C@@H]3CO)O[C@@H]2CO)[C@H](O)[C@@H](O)[C@@H]1N[C@H]1C=C(CO)[C@@H](O)[C@H](O)[C@H]1O (stereo partly specified) [ACARBOSE]
inhibition (Alpha glucosidase [1]): 5.4%
IC50 [2]: 2.39 µg/mL (≈ 3.7 µM)
IC50 [3]: 1820 µM
inhibition (Rattus norvegicus [4]): 50%

Structure (SMILES): O=c1c2ccccc2oc2cc(O)cc(O)c12
IC50 (Alpha glucosidase [5]): 35.2 µM

Structure (SMILES): COC(=O)c1c(O)ccc2oc3cc(C(=O)O)cc(O)c3c(=O)c12
IC50 (Alpha-glucosidase [6]): 260 µM

Structure (SMILES): COc1cc(OC/C=C(\C)C/C=C(\C)C/C=C(\C)C/C=C(\C)C/C=C(\C)C/C=C(\C)C/C=C(\C)C/C=C(\C)CC=C(C)C)c2c(=O)c3c(O)ccc(OC)c3oc2c1
inhibition (Alpha glucosidase [7]): 34.5%

Structure (SMILES): COc1cc(O)c2c(=O)c3c(O)c(O[C@@H]4OC[C@@H](O)[C@H](O)[C@H]4O[C@@H]4O[C@@H](C)[C@H](O)[C@@H](O)[C@H]4O)ccc3oc2c1
IC50 (Alpha-glucosidase [8]): 36 µM
IC50 (Alpha-glucosidase [9]): 765 µM

Structure (SMILES): O=c1c2cc(O[C@H]3O[C@@H](O)[C@H](O)[C@@H](O)[C@@H]3O)c(O)cc2oc2cc(O)c([C@H]3O[C@@H](CO)[C@H](O)[C@@H](O)[C@@H]3O)cc12
IC50 [2]: 158 µg/mL (≈ 285 µM)

Structure (SMILES): O=c1c2cc(O)ccc2oc2cc(O)cc(O)c12
IC50 (Alpha-glucosidase [10]): 14.7 µM
IC50 (Alpha-glucosidase [11]): 3.2 µg/mL (≈ 13.1 µM)

Structure (SMILES): CC1(C)C=Cc2c(cc3oc4c(O)c5c(cc4c(=O)c3c2O)C=CC(C)(C)O5)O1
IC50 (Alpha-glucosidase [12]): > 100 µM

Structure (SMILES): COc1cc(O)c2c(=O)c3c(OC)c(O)c(O)cc3oc2c1
IC50 (Alpha glucosidase [5]): 44.5 µM

Structure (SMILES): O=c1c2cc(O)ccc2oc2cccc(O)c12
IC50 (Alpha-glucosidase [13]): 145 µM
IC50 (Alpha-glucosidase [11]): 35.8 µg/mL (≈ 157 µM)

Structure (SMILES): COC(=O)c1c(O)c(O)cc2oc3c(Cl)c(C)c(Cl)c(O)c3c(=O)c12
IC50 (Alpha-glucosidase [14]): 40 µM

Structure (SMILES): O=c1c2cc(O)c(O)cc2oc2cc(O)c([C@H]3O[C@@H](CO)[C@H](O)[C@@H](O)[C@@H]3O)c(O)c12
IC50 [2]: 96.1 µg/mL (≈ 228 µM)
IC50 [15]: 216 µg/mL (≈ 511 µM)
IC50 [3]: 52200 µM
IC50 [16]: 87 µg/mL (≈ 206 µM)
inhibition (Rattus norvegicus [17]): 42%
inhibition (Rattus norvegicus [18]): 53%

Structure (SMILES): COc1cc(O[C@H]2O[C@@H](CO)[C@H](O)[C@H](O)[C@@H]2O)c2c(=O)c3ccc(OC)c(OC)c3oc2c1
inhibition (Alpha glucosidase [1]): 98.8%

Structure (SMILES): CC(C)=CCOc1cc(O)c2c(=O)c3ccccc3oc2c1
inhibition (Alpha glucosidase [7]): 31%

Structure (SMILES): C=Cc1cc2oc3cc(O)cc(O)c3c(=O)c2c(OC)c1O
IC50 (Alpha glucosidase [5]): 26.3 µM

Structure (SMILES): CC1(C)C=Cc2c(cc3oc4ccc(O)cc4c(=O)c3c2O)O1
IC50 (Alpha-glucosidase [12]): > 100 µM

Structure (SMILES): COC(=O)c1cc(O)cc2oc3cc(C)cc(O)c3c(=O)c12
IC50 (Alpha-glucosidase [6]): 2980 µM

Structure (SMILES): OC[C@H]1NC[C@H](O)[C@@H](O)[C@@H]1O
inhibition [23]: 79.6%
inhibition (Prunus dulcis): 81.2%

Structure (SMILES): C=C(C)/C=C/c1c(OC)c(O)cc2oc3cc4c(c(O)c3c(=O)c12)CC(O)C(C)(C)O4 (stereo unspecified)
IC50 (Alpha-glucosidase [19]): 30.5 µM
IC50 (Alpha-glucosidase [20]): 102.5 µM
Ki (Alpha-glucosidase [22]): 23 µM

Structure (SMILES): O=c1c2cc(O)c(O)cc2oc2c([C@H]3O[C@@H](CO)[C@H](O)[C@@H](O)[C@@H]3O)c(O)cc(O)c12
inhibition (Rattus norvegicus [18]): 50%
IC50 (Alpha glucosidase [24]): 76.98 µg/mL (≈ 182 µM)

Structure (SMILES): O=c1c2c(O)cc(O)cc2oc2cc(O)cc(O)c12
IC50 (Alpha glucosidase [5]): 39 µM

Other lines, results leading:

inhibition (Alpha glucosidase [7]): 66.2%
Structure (SMILES): COc1cc(OC/C=C(\C)C/C=C(\C)CC=C(C)C)c2c(=O)c3c(O)ccc(OC)c3oc2c1

inhibition (Alpha glucosidase [7]): 43.1%
Structure (SMILES): CC(C)=CC/C(C)=C/COc1cc(O)c2c(=O)c3ccccc3oc2c1

IC50 (Alpha-glucosidase [12]): 29.36 µM
Structure (SMILES): CC(C)=CCc1cc2c(=O)c3c(O)c4c(cc3oc2c(O)c1O)OC(C)(C)C=C4

inhibition (Alpha glucosidase [7]): 42.1%
Structure (SMILES): COc1cc(OCC=C(C)C)c2c(=O)c3c(O)ccc(OC)c3oc2c1

IC50 (Alpha-glucosidase [19]): 5 µM
IC50 (Alpha-glucosidase [20]): 53.3 µM
IC50 (Alpha-glucosidase [21]): 11.4 µM
Ki (Alpha-glucosidase [22]): 7.3 µM
Structure (SMILES): C=C(C)/C=C/c1c(O)cc2oc3cc(O)c(OC)c(/C=C/C(=C)C)c3c(=O)c2c1O

IC50 (Alpha-glucosidase [13]): 76 µM
Structure (SMILES): COc1c(CC=C(C)C)c(O)c2c(=O)c3c(O)ccc(O)c3oc2c1CC=C(C)C

IC50 (Alpha-glucosidase [13]): 227 µM
Structure (SMILES): CC(C)=CC/C(C)=C/Cc1c(O)c(CC=C(C)C)c2oc3c(O)ccc(O)c3c(=O)c2c1O

IC50 (Alpha-glucosidase [12]): 8.9 µM
Structure (SMILES): C=CC(C)(C)c1c(O)ccc2c(=O)c3c(O)c(CC=C(C)C)c(OC)c(O)c3oc12

IC50 (Alpha-glucosidase [19]): 6.9 µM
IC50 (Alpha-glucosidase [20]): 35.3 µM
IC50 (Alpha-glucosidase [13]): 394 µM
Ki (Alpha-glucosidase [22]): 2.8 µM
Structure (SMILES): CC(C)=CC/C(C)=C/Cc1c(O)cc2oc3c(O)ccc(O)c3c(=O)c2c1O

IC50 (Alpha-glucosidase [12]): > 100 µM
Structure (SMILES): CC(C)=CCc1c(O)cc2oc3ccc(O)cc3c(=O)c2c1O

IC50 (Alpha-glucosidase [19]): 10.8 µM
IC50 (Alpha-glucosidase [20]): 37.7 µM
IC50 (Alpha-glucosidase [13]): 84 µM
Ki (Alpha-glucosidase [22]): 8.5 µM
Structure (SMILES): C=C(C)/C=C/c1c(O)c(CC=C(C)C)c2oc3c(O)ccc(O)c3c(=O)c2c1O

inhibition (Alpha glucosidase [7]): 30.9%
Structure (SMILES): COc1cc(OC/C=C(\C)CC=C(C)C)c2c(=O)c3c(O)ccc(OC)c3oc2c1

IC50 (Alpha-glucosidase [19]): 9.8 µM
IC50 (Alpha-glucosidase [20]): 85.7 µM
Ki (Alpha-glucosidase [22]): 8.1 µM
Structure (SMILES): C=C(C)/C=C/c1c(O)cc2oc3cc(O)c(OC)c(CC(=O)C(=C)C)c3c(=O)c2c1O

IC50 (Alpha glucosidase [5]): 23.2 µM
Structure (SMILES): O=c1c2c(O)cc(O)cc2oc2ccc(O)c(O)c12
